{"source": "the NIST ThermoML archive (doi:10.1021/je034102r)", "test": "molar heat capacity at constant pressure", "details": "101.33 kPa, Liquid, heat bridge-scanning calorimeter", "note": "± gives the expanded uncertainty stated by the source.", "data": [{"smiles": "CCCCn1cc[n+](C)c1.F[P-](F)(F)(F)(F)F", "note": "[1-butyl-3-methylimidazolium hexafluorophosphate]", "values": [{"measurement": "molar heat capacity at constant pressure", "setting": "466.32 K", "value": "494.48 ± 9.9", "unit": "J/K/mol"}, {"measurement": "molar heat capacity at constant pressure", "setting": "466.46 K", "value": "494.76 ± 9.9", "unit": "J/K/mol"}, {"measurement": "molar heat capacity at constant pressure", "setting": "466.59 K", "value": "495.05 ± 9.9", "unit": "J/K/mol"}, {"measurement": "molar heat capacity at constant pressure", "setting": "466.73 K", "value": "495.9 ± 9.9", "unit": "J/K/mol"}, {"measurement": "molar heat capacity at constant pressure", "setting": "466.87 K", "value": "495.33 ± 9.9", "unit": "J/K/mol"}, {"measurement": "molar heat capacity at constant pressure", "setting": "467 K", "value": "495.33 ± 9.9", "unit": "J/K/mol"}, {"measurement": "molar heat capacity at constant pressure", "setting": "467.14 K", "value": "495.33 ± 9.9", "unit": "J/K/mol"}, {"measurement": "molar heat capacity at constant pressure", "setting": "467.28 K", "value": "495.05 ± 9.9", "unit": "J/K/mol"}, {"measurement": "molar heat capacity at constant pressure", "setting": "467.41 K", "value": "495.33 ± 9.9", "unit": "J/K/mol"}, {"measurement": "molar heat capacity at constant pressure", "setting": "467.55 K", "value": "495.05 ± 9.9", "unit": "J/K/mol"}, {"measurement": "molar heat capacity at constant pressure", "setting": "467.84 K", "value": "495.05 ± 9.9", "unit": "J/K/mol"}, {"measurement": "molar heat capacity at constant pressure", "setting": "467.98 K", "value": "495.33 ± 9.9", "unit": "J/K/mol"}, {"measurement": "molar heat capacity at constant pressure", "setting": "468.12 K", "value": "495.33 ± 9.9", "unit": "J/K/mol"}, {"measurement": "molar heat capacity at constant pressure", "setting": "468.25 K", "value": "495.9 ± 9.9", "unit": "J/K/mol"}, {"measurement": "molar heat capacity at constant pressure", "setting": "468.39 K", "value": "495.9 ± 9.9", "unit": "J/K/mol"}, {"measurement": "molar heat capacity at constant pressure", "setting": "468.52 K", "value": "495.61 ± 9.9", "unit": "J/K/mol"}, {"measurement": "molar heat capacity at constant pressure", "setting": "468.66 K", "value": "495.61 ± 9.9", "unit": "J/K/mol"}, {"measurement": "molar heat capacity at constant pressure", "setting": "468.8 K", "value": "495.33 ± 9.9", "unit": "J/K/mol"}, {"measurement": "molar heat capacity at constant pressure", "setting": "468.93 K", "value": "495.05 ± 9.9", "unit": "J/K/mol"}, {"measurement": "molar heat capacity at constant pressure", "setting": "469.25 K", "value": "495.33 ± 9.9", "unit": "J/K/mol"}, {"measurement": "molar heat capacity at constant pressure", "setting": "469.38 K", "value": "495.33 ± 9.9", "unit": "J/K/mol"}, {"measurement": "molar heat capacity at constant pressure", "setting": "469.52 K", "value": "495.33 ± 9.9", "unit": "J/K/mol"}, {"measurement": "molar heat capacity at constant pressure", "setting": "469.66 K", "value": "495.33 ± 9.9", "unit": "J/K/mol"}, {"measurement": "molar heat capacity at constant pressure", "setting": "469.79 K", "value": "495.61 ± 9.9", "unit": "J/K/mol"}, {"measurement": "molar heat capacity at constant pressure", "setting": "469.93 K", "value": "495.61 ± 9.9", "unit": "J/K/mol"}, {"measurement": "molar heat capacity at constant pressure", "setting": "470.07 K", "value": "495.61 ± 9.9", "unit": "J/K/mol"}, {"measurement": "molar heat capacity at constant pressure", "setting": "470.2 K", "value": "495.61 ± 9.9", "unit": "J/K/mol"}, {"measurement": "molar heat capacity at constant pressure", "setting": "470.34 K", "value": "496.18 ± 9.9", "unit": "J/K/mol"}, {"measurement": "molar heat capacity at constant pressure", "setting": "470.48 K", "value": "495.61 ± 9.9", "unit": "J/K/mol"}, {"measurement": "molar heat capacity at constant pressure", "setting": "470.61 K", "value": "495.9 ± 9.9", "unit": "J/K/mol"}, {"measurement": "molar heat capacity at constant pressure", "setting": "470.91 K", "value": "495.9 ± 9.9", "unit": "J/K/mol"}, {"measurement": "molar heat capacity at constant pressure", "setting": "471.04 K", "value": "496.18 ± 9.9", "unit": "J/K/mol"}, {"measurement": "molar heat capacity at constant pressure", "setting": "471.18 K", "value": "496.47 ± 9.9", "unit": "J/K/mol"}, {"measurement": "molar heat capacity at constant pressure", "setting": "471.32 K", "value": "496.47 ± 9.9", "unit": "J/K/mol"}, {"measurement": "molar heat capacity at constant pressure", "setting": "471.45 K", "value": "496.47 ± 9.9", "unit": "J/K/mol"}, {"measurement": "molar heat capacity at constant pressure", "setting": "471.59 K", "value": "496.47 ± 9.9", "unit": "J/K/mol"}, {"measurement": "molar heat capacity at constant pressure", "setting": "471.73 K", "value": "496.47 ± 9.9", "unit": "J/K/mol"}, {"measurement": "molar heat capacity at constant pressure", "setting": "471.87 K", "value": "496.18 ± 9.9", "unit": "J/K/mol"}, {"measurement": "molar heat capacity at constant pressure", "setting": "472 K", "value": "496.47 ± 9.9", "unit": "J/K/mol"}, {"measurement": "molar heat capacity at constant pressure", "setting": "472.3 K", "value": "496.47 ± 9.9", "unit": "J/K/mol"}, {"measurement": "molar heat capacity at constant pressure", "setting": "472.44 K", "value": "496.47 ± 9.9", "unit": "J/K/mol"}, {"measurement": "molar heat capacity at constant pressure", "setting": "472.58 K", "value": "496.47 ± 9.9", "unit": "J/K/mol"}, {"measurement": "molar heat capacity at constant pressure", "setting": "472.71 K", "value": "496.75 ± 9.9", "unit": "J/K/mol"}, {"measurement": "molar heat capacity at constant pressure", "setting": "472.85 K", "value": "496.75 ± 9.9", "unit": "J/K/mol"}, {"measurement": "molar heat capacity at constant pressure", "setting": "472.99 K", "value": "496.47 ± 9.9", "unit": "J/K/mol"}, {"measurement": "molar heat capacity at constant pressure", "setting": "473.12 K", "value": "496.47 ± 9.9", "unit": "J/K/mol"}, {"measurement": "molar heat capacity at constant pressure", "setting": "473.26 K", "value": "496.47 ± 9.9", "unit": "J/K/mol"}, {"measurement": "molar heat capacity at constant pressure", "setting": "473.4 K", "value": "496.47 ± 9.9", "unit": "J/K/mol"}, {"measurement": "molar heat capacity at constant pressure", "setting": "473.53 K", "value": "496.47 ± 9.9", "unit": "J/K/mol"}, {"measurement": "molar heat capacity at constant pressure", "setting": "473.67 K", "value": "497.03 ± 9.9", "unit": "J/K/mol"}, {"measurement": "molar heat capacity at constant pressure", "setting": "473.97 K", "value": "498.17 ± 9.9", "unit": "J/K/mol"}, {"measurement": "molar heat capacity at constant pressure", "setting": "474.1 K", "value": "497.6 ± 9.9", "unit": "J/K/mol"}, {"measurement": "molar heat capacity at constant pressure", "setting": "474.24 K", "value": "497.32 ± 9.9", "unit": "J/K/mol"}, {"measurement": "molar heat capacity at constant pressure", "setting": "474.38 K", "value": "497.32 ± 9.9", "unit": "J/K/mol"}, {"measurement": "molar heat capacity at constant pressure", "setting": "474.51 K", "value": "497.6 ± 9.9", "unit": "J/K/mol"}, {"measurement": "molar heat capacity at constant pressure", "setting": "474.65 K", "value": "497.32 ± 9.9", "unit": "J/K/mol"}, {"measurement": "molar heat capacity at constant pressure", "setting": "474.79 K", "value": "497.03 ± 9.9", "unit": "J/K/mol"}, {"measurement": "molar heat capacity at constant pressure", "setting": "474.92 K", "value": "496.75 ± 9.9", "unit": "J/K/mol"}, {"measurement": "molar heat capacity at constant pressure", "setting": "475.06 K", "value": "496.75 ± 9.9", "unit": "J/K/mol"}, {"measurement": "molar heat capacity at constant pressure", "setting": "475.36 K", "value": "496.75 ± 9.9", "unit": "J/K/mol"}, {"measurement": "molar heat capacity at constant pressure", "setting": "475.5 K", "value": "497.03 ± 9.9", "unit": "J/K/mol"}, {"measurement": "molar heat capacity at constant pressure", "setting": "475.63 K", "value": "496.75 ± 9.9", "unit": "J/K/mol"}, {"measurement": "molar heat capacity at constant pressure", "setting": "475.78 K", "value": "497.03 ± 9.9", "unit": "J/K/mol"}, {"measurement": "molar heat capacity at constant pressure", "setting": "475.92 K", "value": "497.03 ± 9.9", "unit": "J/K/mol"}, {"measurement": "molar heat capacity at constant pressure", "setting": "476.06 K", "value": "497.03 ± 9.9", "unit": "J/K/mol"}, {"measurement": "molar heat capacity at constant pressure", "setting": "476.19 K", "value": "497.03 ± 9.9", "unit": "J/K/mol"}, {"measurement": "molar heat capacity at constant pressure", "setting": "476.33 K", "value": "497.03 ± 9.9", "unit": "J/K/mol"}, {"measurement": "molar heat capacity at constant pressure", "setting": "476.47 K", "value": "497.32 ± 9.9", "unit": "J/K/mol"}, {"measurement": "molar heat capacity at constant pressure", "setting": "476.61 K", "value": "497.32 ± 9.9", "unit": "J/K/mol"}, {"measurement": "molar heat capacity at constant pressure", "setting": "476.74 K", "value": "497.32 ± 9.9", "unit": "J/K/mol"}, {"measurement": "molar heat capacity at constant pressure", "setting": "477.04 K", "value": "497.6 ± 9.9", "unit": "J/K/mol"}, {"measurement": "molar heat capacity at constant pressure", "setting": "477.18 K", "value": "497.32 ± 9.9", "unit": "J/K/mol"}, {"measurement": "molar heat capacity at constant pressure", "setting": "477.31 K", "value": "497.6 ± 9.9", "unit": "J/K/mol"}, {"measurement": "molar heat capacity at constant pressure", "setting": "477.45 K", "value": "498.17 ± 9.9", "unit": "J/K/mol"}, {"measurement": "molar heat capacity at constant pressure", "setting": "477.59 K", "value": "497.89 ± 9.9", "unit": "J/K/mol"}, {"measurement": "molar heat capacity at constant pressure", "setting": "477.72 K", "value": "497.89 ± 9.9", "unit": "J/K/mol"}, {"measurement": "molar heat capacity at constant pressure", "setting": "477.86 K", "value": "497.89 ± 9.9", "unit": "J/K/mol"}, {"measurement": "molar heat capacity at constant pressure", "setting": "478 K", "value": "497.6 ± 9.9", "unit": "J/K/mol"}, {"measurement": "molar heat capacity at constant pressure", "setting": "478.13 K", "value": "497.6 ± 9.9", "unit": "J/K/mol"}, {"measurement": "molar heat capacity at constant pressure", "setting": "478.44 K", "value": "497.6 ± 9.9", "unit": "J/K/mol"}, {"measurement": "molar heat capacity at constant pressure", "setting": "478.57 K", "value": "497.6 ± 9.9", "unit": "J/K/mol"}, {"measurement": "molar heat capacity at constant pressure", "setting": "478.71 K", "value": "497.6 ± 9.9", "unit": "J/K/mol"}, {"measurement": "molar heat capacity at constant pressure", "setting": "478.85 K", "value": "497.6 ± 9.9", "unit": "J/K/mol"}, {"measurement": "molar heat capacity at constant pressure", "setting": "478.98 K", "value": "497.6 ± 9.9", "unit": "J/K/mol"}, {"measurement": "molar heat capacity at constant pressure", "setting": "479.12 K", "value": "497.89 ± 9.9", "unit": "J/K/mol"}, {"measurement": "molar heat capacity at constant pressure", "setting": "479.26 K", "value": "497.6 ± 9.9", "unit": "J/K/mol"}, {"measurement": "molar heat capacity at constant pressure", "setting": "479.39 K", "value": "497.6 ± 9.9", "unit": "J/K/mol"}, {"measurement": "molar heat capacity at constant pressure", "setting": "479.53 K", "value": "497.89 ± 9.9", "unit": "J/K/mol"}, {"measurement": "molar heat capacity at constant pressure", "setting": "479.67 K", "value": "497.89 ± 9.9", "unit": "J/K/mol"}, {"measurement": "molar heat capacity at constant pressure", "setting": "479.81 K", "value": "498.17 ± 9.9", "unit": "J/K/mol"}, {"measurement": "molar heat capacity at constant pressure", "setting": "480.1 K", "value": "498.17 ± 9.9", "unit": "J/K/mol"}, {"measurement": "molar heat capacity at constant pressure", "setting": "480.24 K", "value": "498.17 ± 9.9", "unit": "J/K/mol"}, {"measurement": "molar heat capacity at constant pressure", "setting": "480.38 K", "value": "497.89 ± 9.9", "unit": "J/K/mol"}, {"measurement": "molar heat capacity at constant pressure", "setting": "480.51 K", "value": "498.17 ± 9.9", "unit": "J/K/mol"}, {"measurement": "molar heat capacity at constant pressure", "setting": "480.65 K", "value": "498.17 ± 9.9", "unit": "J/K/mol"}]}]}
